Reference: ChEMBL document CHEMBL1201862, “PubChem BioAssay data set” (2004)
Values joined by “and” are separate entries in the source; they are usually repeats but may differ in a detail not shown here. Identical values can stand only once.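 How tested: cells in 96-well plates exposed to compound for 48 hours at five concentrations. GI50: concentration for 50% inhibition of growth.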 Active and inactive are the calls of the source. Cut-off read from the data, not from the text of the source: active = GI50 up to about 1.1 µM and inactive = higher.

How the values were obtained:
Experiment in all cases: growth of human tumour cells (NCI), 48 h
[1] = system: IGROV-1
[2] = system: MOLT-4
[3] = system: SNB-75
[4] = system: 786-0
[5] = system: BT-549
[6] = system: RXF 393
[7] = system: OVCAR-8
[8] = system: SF-268
[9] = system: LOX IMVI
[10] = system: SN12C
[11] = system: MDA-MB-435
[12] = system: SF-295
[13] = system: HCT-116
[14] = system: NCI-H460
[15] = system: SW-620
[16] = system: CCRF-CEM
[17] = system: SK-MEL-5
[18] = system: MDA-N
[19] = system: NCI-H522
[20] = system: RPMI-8226
[21] = system: Hs-578T
[22] = system: K562
[23] = system: HT-29
[24] = system: HL-60
[25] = system: KM12
[26] = system: OVCAR-5
[27] = system: UO-31
[28] = system: SK-OV-3
[29] = system: PC-3
[30] = system: UACC-257
[31] = system: OVCAR-3
[32] = system: NCI/ADR-RES
[33] = system: NCI-H23
[34] = system: SNB-19
[35] = system: A549
[36] = system: Malme-3M
[37] = system: COLO 205
[38] = system: M14
[39] = system: OVCAR-4
[40] = system: HOP-62
[41] = system: SK-MEL-28
[42] = system: A498
[43] = system: MDA-MB-231
[44] = system: DU-145
[45] = system: HCT-15
[46] = system: UACC-62
[47] = system: U-251
[48] = system: HOP-92
[49] = system: MCF7
[50] = system: CAKI-1
[51] = system: ACHN
[52] = system: HCC 2998
[53] = system: SK-MEL-2
[54] = system: TK-10
[55] = system: EKVX
[56] = system: T47D
[57] = system: SR
[58] = system: NCI-H226
[59] = system: SF-539

SMILES: CC(=O)OCC1OC(OC(C)(C)CC/C=C(\C)[C@@H]2C/C=C(\C)CC/C=C(\C)CC2)C(O)C(O)C1OC(C)=O (some centres not stated)
- GI50 [1]: 17.5 µM (inactive) and 21.6 µM (inactive)
- GI50 [2]: 17 µM (inactive) and > 10 µM (inactive)
- GI50 [3]: 17.4 µM (inactive) and 17.1 µM (inactive)
- GI50 [4]: 39.4 µM (inactive) and 23.6 µM (inactive)
- GI50 [5]: 33.9 µM (inactive) and 19.7 µM (inactive)
- GI50 [6]: > 100 µM (inactive)
- GI50 [7]: 20.6 µM (inactive) and 28.6 µM (inactive)
- GI50 [8]: 27 µM (inactive) and 19.8 µM (inactive)
- GI50 [9]: 18.5 µM (inactive) and 21.3 µM (inactive)
- GI50 [10]: 32 µM (inactive) and 20 µM (inactive)
- GI50 [11]: 32.8 µM (inactive) and 20.2 µM (inactive)
- GI50 [12]: 22.9 µM (inactive) and 42.3 µM (inactive)
- GI50 [13]: 25 µM (inactive) and 22.9 µM (inactive)
- GI50 [14]: 17.9 µM (inactive) and 23.2 µM (inactive)
- GI50 [15]: 26.1 µM (inactive) and 24.2 µM (inactive)
- GI50 [16]: 22.5 µM (inactive) and 14 µM (inactive)
- GI50 [17]: 17.5 µM (inactive) and 30.1 µM (inactive)
- GI50 [18]: 24.7 µM (inactive) and 19.7 µM (inactive)
- GI50 [19]: 18.9 µM (inactive) and 11.3 µM (inactive)
- GI50 [20]: 25.5 µM (inactive) and 19.7 µM (inactive)
- GI50 [21]: 0.3 µM (active)
- GI50 [22]: 28.7 µM (inactive) and 22.4 µM (inactive)
- GI50 [23]: 24.5 µM (inactive) and 14.9 µM (inactive)
- GI50 [24]: 28.5 µM (inactive)
- GI50 [25]: 26.7 µM (inactive) and 19 µM (inactive)

SMILES: COc1ccc(/N=[N+](\[O-])c2ccc(OC)cc2)cc1
- GI50 [26]: > 100 µM (inactive)
- GI50 [27]: > 100 µM (inactive)
- GI50 [28]: > 100 µM (inactive)
- GI50 [29]: > 100 µM (inactive)
- GI50 [1]: > 100 µM (inactive)
- GI50 [2]: > 100 µM (inactive)
- GI50 [30]: > 100 µM (inactive)
- GI50 [31]: > 100 µM (inactive)
- GI50 [32]: > 100 µM (inactive)
- GI50 [3]: > 100 µM (inactive)
- GI50 [33]: > 100 µM (inactive)
- GI50 [4]: > 100 µM (inactive)
- GI50 [34]: > 100 µM (inactive)
- GI50 [5]: > 100 µM (inactive)
- GI50 [35]: > 100 µM (inactive)
- GI50 [36]: > 100 µM (inactive)
- GI50 [6]: > 100 µM (inactive)
- GI50 [37]: > 100 µM (inactive)
- GI50 [38]: > 100 µM (inactive)
- GI50 [7]: > 100 µM (inactive)
- GI50 [8]: > 100 µM (inactive)
- GI50 [39]: > 100 µM (inactive)
- GI50 [40]: > 100 µM (inactive)
- GI50 [41]: > 100 µM (inactive)
- GI50 [42]: > 100 µM (inactive)
- GI50 [43]: > 100 µM (inactive)
- GI50 [11]: > 100 µM (inactive)
- GI50 [12]: > 100 µM (inactive)
- GI50 [44]: > 100 µM (inactive)
- GI50 [13]: > 100 µM (inactive)
- GI50 [45]: > 100 µM
- GI50 [14]: > 100 µM (inactive)
- GI50 [46]: > 100 µM (inactive)
- GI50 [47]: > 100 µM (inactive)
- GI50 [17]: > 100 µM (inactive)
- GI50 [18]: > 100 µM (inactive)
- GI50 [48]: > 100 µM (inactive)
- GI50 [19]: 79.8 µM (inactive)
- GI50 [20]: > 100 µM (inactive)
- GI50 [49]: > 100 µM (inactive)
- GI50 [50]: > 100 µM (inactive)
- GI50 [51]: > 100 µM (inactive)
- GI50 [21]: > 100 µM (inactive)
- GI50 [22]: > 100 µM (inactive)
- GI50 [52]: > 100 µM (inactive)
- GI50 [23]: > 100 µM (inactive)
- GI50 [25]: > 100 µM (inactive)
- GI50 [53]: > 100 µM (inactive)
- GI50 [54]: > 100 µM (inactive)
- GI50 [55]: > 100 µM (inactive)

SMILES: O=C(NCCCNC(=O)c1ccc2cc(O)c(O)cc2c1)c1ccc2cc(O)c(O)cc2c1
- GI50 [26]: 63 µM (inactive)
- GI50 [27]: 34.1 µM (inactive)
- GI50 [29]: 27.4 µM (inactive)
- GI50 [1]: 35.6 µM (inactive)
- GI50 [2]: 30 µM (inactive)
- GI50 [30]: 36.4 µM (inactive)
- GI50 [32]: > 100 µM (inactive)
- GI50 [3]: 22.8 µM (inactive)
- GI50 [33]: 22.5 µM (inactive)
- GI50 [34]: 18.3 µM (inactive)
- GI50 [5]: 26.9 µM (inactive)
- GI50 [35]: 69.8 µM (inactive)
- GI50 [36]: 28.6 µM (inactive)
- GI50 [6]: 24.7 µM (inactive)
- GI50 [37]: 30.7 µM (inactive)
- GI50 [38]: 45.7 µM (inactive)
- GI50 [7]: 35.2 µM (inactive)
- GI50 [8]: 28.8 µM (inactive)
- GI50 [39]: 16.7 µM (inactive)
- GI50 [40]: 25.1 µM (inactive)
- GI50 [41]: 40.4 µM (inactive)
- GI50 [9]: 24.2 µM (inactive)
- GI50 [42]: 63.4 µM (inactive)
- GI50 [11]: 32.4 µM (inactive)
- GI50 [44]: 26.7 µM (inactive)
- GI50 [13]: 37.4 µM (inactive)
- GI50 [45]: 19.9 µM
- GI50 [14]: 34 µM (inactive)
- GI50 [56]: 26.7 µM (inactive)
- GI50 [46]: 20 µM (inactive)
- GI50 [15]: 43 µM (inactive)
- GI50 [16]: 27.1 µM (inactive)
- GI50 [47]: 21.9 µM (inactive)
- GI50 [17]: 22.8 µM (inactive)
- GI50 [18]: 31.7 µM (inactive)
- GI50 [57]: 25.3 µM (inactive)
- GI50 [48]: 14.2 µM (inactive)
- GI50 [19]: 29.6 µM (inactive)
- GI50 [20]: 29.3 µM (inactive)
- GI50 [49]: 30.9 µM (inactive)
- GI50 [50]: > 100 µM (inactive)
- GI50 [51]: 23.9 µM (inactive)
- GI50 [58]: 18.4 µM (inactive)
- GI50 [22]: 33.7 µM (inactive)
- GI50 [52]: 18.6 µM (inactive)
- GI50 [23]: 23.4 µM (inactive)
- GI50 [24]: 19.2 µM (inactive)
- GI50 [25]: 37.9 µM (inactive)
- GI50 [53]: 13.1 µM (inactive)
- GI50 [59]: 16.5 µM (inactive)
- GI50 [54]: 37.9 µM (inactive)
- GI50 [55]: 27.9 µM (inactive)

SMILES: CN(C)C(=S)SCc1ccccc1
- GI50 [26]: > 100 µM (inactive)
- GI50 [27]: 53.7 µM (inactive)
- GI50 [28]: > 100 µM (inactive)
- GI50 [1]: > 100 µM (inactive)
- GI50 [30]: 79.8 µM (inactive)
- GI50 [31]: > 100 µM (inactive)
- GI50 [32]: > 100 µM (inactive)
- GI50 [3]: 2.41 µM (inactive)
- GI50 [33]: > 100 µM (inactive)
- GI50 [34]: > 100 µM (inactive)
- GI50 [5]: 87.9 µM (inactive)
- GI50 [35]: > 100 µM (inactive)
- GI50 [36]: 27.2 µM (inactive)
- GI50 [6]: 3.85 µM (inactive)
- GI50 [37]: > 100 µM (inactive)
- GI50 [38]: > 100 µM (inactive)
- GI50 [7]: > 100 µM (inactive)
- GI50 [8]: > 100 µM (inactive)
- GI50 [40]: > 100 µM (inactive)
- GI50 [41]: > 100 µM (inactive)
- GI50 [9]: > 100 µM (inactive)
- GI50 [42]: 62.5 µM (inactive)
- GI50 [43]: 99.1 µM (inactive)
- GI50 [10]: > 100 µM (inactive)
- GI50 [11]: > 100 µM (inactive)
- GI50 [12]: > 100 µM (inactive)
- GI50 [44]: > 100 µM (inactive)
- GI50 [13]: 83.9 µM (inactive)
- GI50 [45]: > 100 µM
- GI50 [14]: > 100 µM (inactive)
- GI50 [56]: 0.033 µM (active)
- GI50 [46]: > 100 µM (inactive)
- GI50 [15]: > 100 µM (inactive)
- GI50 [16]: > 100 µM (inactive)
- GI50 [47]: > 100 µM (inactive)
- GI50 [17]: > 100 µM (inactive)
- GI50 [18]: > 100 µM (inactive)
- GI50 [48]: 88.3 µM (inactive)
- GI50 [19]: 19.8 µM (inactive)
- GI50 [49]: > 100 µM (inactive)
- GI50 [50]: > 100 µM (inactive)
- GI50 [21]: > 100 µM (inactive)
- GI50 [58]: 54.2 µM (inactive)
- GI50 [23]: > 100 µM (inactive)
- GI50 [24]: 99.1 µM (inactive)
- GI50 [25]: > 100 µM (inactive)
- GI50 [53]: 83.4 µM (inactive)
- GI50 [59]: > 100 µM (inactive)
- GI50 [54]: > 100 µM (inactive)
- GI50 [55]: > 100 µM (inactive)
